Experiments:
CDK2 [1] = biological target: T1, CDK2 (Homo sapiens, UniProt P24941); experiment: Inhibition of CDK2: phospho-Rb (S807/811) HTRF measurement in OVCAR3 cells; format: cell-based; conditions: 24 h compound treatment, read-out: pRb (nM), IC50 in pRB(S807/811) assay
T1 construct: High-Throughput Measurement of Cellular Endogenous CDK2; endogenous in cells; host or cells: OVCAR3
Protocol: Phosphorylation of RB protein at S807/811 were measured using HTRF phospho-RB cellular kits (Cat #64RBS807PEG) from Cisbio.
On Day 1, OVCAR3 (dependent on CDK2) cells were seeded into 96-well tissue-culture treated plates at 20,000 cells/well in 200 μL and incubated overnight at 37° C. in CO2 atmosphere. On Day 2, the cells were treated with test compounds at concentrations from 0.3 to 10,000 nM using HP D300 digital dispenser. Twenty-four hours after compound treatment, cell culture media was removed by flicking the plate and tapping the plate against clean paper towel. Immediately 30 μL 1× lysis buffer was supplemented from the kit and the plate was incubated at room temperature on shaker for 30 min. After homogenization by pipetting up and down, 8 μL cell lysate from 96-well cell culture plate was transferred to 384-well small volume white detection plate. 2 μL premixed detection solution was added and the plate was covered with sealer. To prepare the detection solution, d2 conjugated-phospho-RB antibody and Eu-cryptate conjugated phosphor-RB antibody were diluted into detection buffer following manufacturer's instruction. Detection plates were incubated for 4 h at room temperature and read on ClarioStar (BMG Labtech) in TR-FRET mode (665 nM and 620 nM). The TR-FRET ratio (665 nM/620 nM) was plotted against the compound concentration and normalized to DMSO controls. Half maximal inhibition concentration (IC50) values are calculated with a four-parameter logistic fit using GraphPad Prism (version 8; La Jolla, CA).
In the table below, A indicates a IC50 of less than 0.1 μM; B indicates a IC50 of greater than or equal to 0.1 μM but less than 0.5 μM; C indicates a IC50 of greater than or equal to 0.5 μM but less than 1 μM; and D indicates a […] of greater than or equal to 1 μM but less than 10 μM.

CDK2 [2] = biological target: T1, CDK2; experiment: CDK2 HTRF assay: cellular endogenous CDK2 level in OVCAR3 cells; format: cell-based; conditions: 24 hours compound treatment, read-out: DC50 (half maximal degradation concentration of CDK2)
Protocol: Effects of compounds on cellular CDK2 level can be monitored by a high-throughput HTRF assay or traditional Western Blot assay.
To determine half maximal degradation concentration (DC50) values of compounds, cellular CDK2 level was measured in 96-well format using HTRF total CDK2 cellular kit (Cat #64CDK2TPEG) from Cisbio.
On Day 1, OVCAR3 cells were seeded into 96-well tissue-culture treated plates at 20,000 cells/well in 200 μL and incubated overnight at 37° C. in CO2 atmosphere. On Day 2 cells were treated with compounds at concentration ranging from 0.3 to 10,000 nM using HP D300 digital dispenser. 24 hours after compound treatment, cell culture media was removed by flicking the plate and tapping the plate against clean paper towel. Immediately 30 μL 1× lysis buffer was supplemented from the kit and the plate was incubated at room temperature on shaker for 30 min. After homogenization by pipetting up and down, 8 μL cell lysate from 96-well cell culture plate was transferred to 384-well small volume white detection plate. 2 μL premixed detection solution was added and the plate was covered with sealer. To prepare the detection solution, d2 conjugated-CDK2 antibody and Eu-cryptate conjugated CDK2 antibody were diluted into detection buffer following manufacturer's instruction. Detection plates were incubated overnight at room temperature and read on ClarioStar (BMG Labtech) in TR-FRET mode (665 nM and 620 nM). The TR-FRET ratio (665 nM/620 nM) was plotted against the compound concentration and normalized to DMSO controls. Half maximal degradation concentration (DC50) values were calculated with a four-parameter logistic fit using GraphPad Prism (version 8; La Jolla, CA).
In the table below, A indicates a DC50 of less than 0.1 μM; B indicates a DC50 of greater than or equal to 0.1 μM but less than 0.5 μM; C indicates a DC50 of greater than or equal to 0.5 μM but less than 1 μM; and D indicates a DC50 of greater than or equal to 1 μM but less than 10 μM.

CC(Cc1cccc(S(=O)(=O)N2CCC(Nc3ncc(C(F)(F)F)c(-c4cnn(CC(F)(F)F)c4)n3)CC2)c1)N1CCC(c2ccc3c(N4CCC(=O)NC4=O)nn(C)c3c2)CC1 (stereo not drawn) [Example 93, 1-(1-methyl-6-(1-(1-(3-((4-((4-(1-(2,2,2-trifluoroethyl)-1H-pyrazol-4-yl)-5-(trifluoromethyl)pyrimidin-2-yl)amino)-piperidin-1-yl)sulfonyl)-phenyl)propan-2-yl)piperidin-4-yl)-1H-indazol-3-yl)dihydropyrimidine-2,4(1H,3H)-dione]
IC50 (CDK2 [1]): < 100 nM
DC50 (CDK2 [2]): < 100 nM

O=C1CCN(c2ccc(N3CCN(Cc4cccc(S(=O)(=O)N5CCC(Nc6ncc(C(F)(F)F)c(-c7cnn(CC(F)(F)F)c7)n6)CC5)c4)CC3)cc2)C(=O)N1 [Example 25, 1-(4-(4-(3-((4-((4-(1-(2,2,2-trifluoro-ethyl)-1H-pyrazol-4-yl)-5-(trifluoro-methyl)pyrimidin-2-yl)amino)-piperidin-1-yl)sulfonyl)benzyl)piperazin-1-yl)-phenyl)dihydro-pyrimidine-2,4(1H,3H)-dione]
IC50 (CDK2 [1]): < 100 nM
DC50 (CDK2 [2]): < 100 nM

Cn1cc(-c2nc(NC3CCN(S(=O)(=O)c4cccc(CN5CCC(c6ccc7c(N8CCC(=O)NC8=O)nn(C)c7c6)CC5)c4)CC3)ncc2C(F)(F)F)cn1 [Example 33, 1-(1-methyl-6-(1-(3-((4-((4-(1-methyl-1H-pyrazol-4-yl)-5-(trifluoromethyl)-pyrimidin-2-yl)amino)piperidin-1-yl)-sulfonyl)benzyl)piperidin-4-yl)-1H-indazol-3-yl)dihydropyrimidine-2,4(1H,3H)-dione]
IC50 (CDK2 [1]): < 100 nM
DC50 (CDK2 [2]): < 100 nM

Cn1nc(N2CCC(=O)NC2=O)c2ccc(C3CCN(C(c4cccc(S(=O)(=O)N5CCC(Nc6ncc(C(F)(F)F)c(-c7cnn(CC(F)(F)F)c7)n6)CC5)c4)C(F)F)CC3)cc21 (stereo not drawn) [Example 84, 1-(6-(1-(2,2-difluoro-1-(3-((4-((4-(1-(2,2,2-trifluoroethyl)-1H-pyrazol-4-yl)-5-(trifluoromethyl)pyrimidin-2-yl)amino)-piperidin-1-yl)sulfonyl)-phenyl)ethyl)-piperidin-4-yl)-1-methyl-1H-indazol-3-yl)dihydropyrimidine-2,4(1H,3H)-dione]
IC50 (CDK2 [1]): < 100 nM
DC50 (CDK2 [2]): < 100 nM

CC(C)(O)Cn1cc(-c2nc(NC3CCN(S(=O)(=O)c4cccc(CN5CCN(c6ccc(N7CCC(=O)NC7=O)cc6)CC5)c4)CC3)ncc2C(F)(F)F)cn1 [Example 24, 1-(4-(4-(3-((4-((4-(1-(2-hydroxy-2-methylpropyl)-1H-pyrazol-4-yl)-5-(trifluoromethyl)pyrimidin-2-yl)amino)-piperidin-1-yl)sulfonyl)benzyl)-piperazin-1-yl)phenyl)dihydro-pyrimidine-2,4(1H,3H)-dione]
IC50 (CDK2 [1]): < 100 nM
DC50 (CDK2 [2]): < 100 nM

Cn1nc(N2CCC(=O)NC2=O)c2ccc(C3CCN(Cc4cccc(S(=O)(=O)N5CC[C@H](Nc6ncc(C(F)(F)F)c(-c7cnn(CC(F)(F)F)c7)n6)[C@H](F)C5)c4)CC3)cc21 (racemic) [Example 6, Rac-1-(6-(1-(3-(((3R,4S)-3-fluoro-4-((4-(1-(2,2,2-trifluoroethyl)-1H-pyrazol-4-yl)-5-(trifluoromethyl)-pyrimidin-2-yl)amino)piperidin-1-yl)sulfonyl)-benzyl)piperidin-4-yl)-1-methyl-1H-indazol-3-yl)dihydro-pyrimidine-2,4(1H,3H)-dione]
IC50 (CDK2 [1]): < 100 nM
DC50 (CDK2 [2]): < 100 nM

Cn1nc(N2CCC(=O)NC2=O)c2cc(F)c(N3CCN(Cc4cccc(S(=O)(=O)N5CC[C@H](Nc6ncc(C(F)(F)F)c(-c7cnn(CC(F)(F)F)c7)n6)[C@H](F)C5)c4)CC3)cc21 [Example 73, 1-(5-fluoro-6-(4-(3-(((3R,4S)-3-fluoro-4-((4-(1-(2,2,2-trifluoroethyl)-1H-pyrazol-4-yl)-5-(trifluoromethyl)pyrimidin-2-yl)amino)piperidin-1-yl)sulfonyl)-benzyl)piperazin-1-yl)-1-methyl-1H-indazol-3-yl)dihydropyrimidine-2,4(1H,3H)-dione]
IC50 (CDK2 [1]): < 100 nM
DC50 (CDK2 [2]): < 100 nM

O=C1CCC(N2C(=O)c3cc(F)c(N4CCN(Cc5cccc(S(=O)(=O)N6CCC(Nc7ncc(C(F)(F)F)c(-c8cnn(C9CCOCC9)c8)n7)CC6)c5)CC4)cc3C2=O)C(=O)N1 (stereo not drawn) [Example 10, 2-(2,6-dioxopiperidin-3-yl)-5-fluoro-6-(4-(3-((4-((4-(1-(tetrahydro-2H-pyran-4-yl)-1H-pyrazol-4-yl)-5-(trifluoromethyl)-pyrimidin-2-yl)amino)-piperidin-1-yl)-sulfonyl)benzyl)-piperazin-1-yl)iso-indoline-1,3-dione]
IC50 (CDK2 [1]): < 100 nM
DC50 (CDK2 [2]): < 100 nM

Cn1c(S(=O)(=O)N2CCC(Nc3ncc(C(F)(F)F)c(-c4cnn(CC(F)(F)F)c4)n3)CC2)cnc1CN1CCN(c2ccc(C3CCC(=O)NC3=O)cc2F)CC1 (stereo not drawn) [Example 20, 3-(3-fluoro-4-(4-((1-methyl-5-((4-((4-(1-(2,2,2-trifluoroethyl)-1H-pyrazol-4-yl)-5-(trifluoromethyl)pyrimidin-2-yl)amino)-piperidin-1-yl)sulfonyl)-1H-imidazol-2-yl)methyl)piperazin-1-yl)phenyl)-piperidine-2,6-dione]
IC50 (CDK2 [1]): < 100 nM
DC50 (CDK2 [2]): < 100 nM

Cn1nc(N2CCC(=O)NC2=O)c2ccc(C3CCN(Cc4cccc(S(=O)(=O)N5CCC(Nc6ncc(C(F)(F)F)c(-c7cnn(CC(F)(F)F)c7)n6)CC5)c4)CC3)cc21 [Example 4, 1-(1-methyl-6-(1-(3-((4-((4-(1-(2,2,2-trifluoroethyl)-1H-pyrazol-4-yl)-5-(trifluoromethyl)pyrimidin-2-yl)amino)-piperidin-1-yl)sulfonyl)-benzyl)-piperidin-4-yl)-1H-indazol-3-yl)dihydro-pyrimidine-2,4(1H,3H)-dione]
IC50 (CDK2 [1]): < 100 nM
DC50 (CDK2 [2]): < 100 nM

Cc1ncsc1-c1ccc([C@H](C)NC(=O)[C@@H]2C[C@@H](O)CN2C(=O)[C@@H](NC(=O)C2(F)CC2)C(C)(C)SCC2CCN(Cc3cccc(S(=O)(=O)N4CCC(Nc5ncc(C(F)(F)F)c(-c6cnn(CC(F)(F)F)c6)n5)CC4)c3)CC2)cc1 [Example 77, (2S,4R)-1-((R)-2-(1-fluorocyclopropane-1-carboxamido)-3-methyl-3-(((1-(3-((4-((4-(1-(2,2,2-trifluoroethyl)-1H-pyrazol-4-yl)-5-(trifluoromethyl)pyrimidin-2-yl)-amino)piperidin-1-yl)sulfonyl)-benzyl)-piperidin-4-yl)methyl)thio)-butanoyl)-4-hydroxy-N-((S)-1-(4-(4-methylthiazol-5-yl)phenyl)ethyl)-pyrrolidine-2-carboxamide]
IC50 (CDK2 [1]): < 100 nM
DC50 (CDK2 [2]): < 100 nM

Cn1nc(N2CCC(=O)NC2=O)c2ccc(N3CC4CC(C3)N4Cc3cccc(S(=O)(=O)N4CC[C@H](Nc5ncc(C(F)(F)F)c(-c6cnn(CC(F)(F)F)c6)n5)[C@H](F)C4)c3)cc21 [Example 82, 1-(6-(6-(3-(((3R,4S)-3-fluoro-4-((4-(1-(2,2,2-trifluoroethyl)-1H-pyrazol-4-yl)-5-(trifluoromethyl)pyrimidin-2-yl)amino)-piperidin-1-yl)sulfonyl)-benzyl)-3,6-diazabicyclo[3.1.1]heptan-3-yl)-1-methyl-1H-indazol-3-yl)dihydro-pyrimidine-2,4(1H,3H)-dione]
IC50 (CDK2 [1]): < 100 nM
DC50 (CDK2 [2]): < 100 nM
